Laboratory results from patent US20210094933A1, “RAPAFUCIN DERIVATIVE COMPOUNDS AND METHODS OF USE THEREOF” (The Johns Hopkins University, priority 2019, published 2021).
Converted amounts (≈) assume the structure as drawn. Like-named read-outs stand apart in the source and are kept apart here.

Legend:
[1] = tested on: 293T; experiment: Nucleoside uptake assay (3H-Thymidine), IC50 relative to DMSO control; assay type: cell-based; conditions: 293T cells; Table 17
Experimental: Nucleoside Uptake Assay (uptake). Nuceloside uptake assays were performed with using 3H-Thymidine as described in Guo et al. (2018) Nat. Chem, 11:254-63. Specific cell lines are indicated in each assay and cultured in complete growth media. Activity is scored according to the IC50 values relative to DMSO control. “Low” indicates an IC50 greater than 600 nM, “Medium” indicates an IC50 between 300 nM and 600 nM “High” indicates an IC50 less than 300 nM. “Rel.Uptake” refers to uptake activity characterization relative to a single concentration assay. “Low” indicates a response greater than 0.6 times the activity relative to DMSO, “Medium” indicates a response between 0.6 and 0.3 times the activity relative to DMSO, “High” indicates a response less than 0.3 times the activity relative to DMSO.

[2] = tested on: Sprague Dawley Rats; experiment: Rat Renal Ischemia-Reperfusion model; assay type: in vivo; conditions: compound given 30 min prior to right nephrectomy and left renal clamping, 24 hours of reperfusion
Experimental: Briefly, Sprague Dawley Rats were treated test compound 30 min prior to a right nephrectomy and with underwent clamping of the left renal clamping for 15 mins. After 24 hours of reperfusion, blood was collected to measure biomarkers for kidney damage and the kidney was removed for histology. […] SHAM indicates an animal group with right nephrectomy without ischemic injury. VE indicates vehicle. DPA indicates dipyridamole administered in a dosage of 10 mg/kg. Compound 1593 was administered at a high dosage (12 mg/kg) or a low dosage (4 mg/kg). Compound 1594 was administered at 4 mg/kg.

[3] = Nucleoside uptake assay, single concentration (Rel.Uptake), response relative to DMSO; cell line indicated in each table; assay type: cell-based; conditions: 293 T cells, nucleoside uptake at single concentration
[4] = Aqueous solubility in PBS solution; assay type: physicochemical; conditions: aqueous buffer
Experimental: Compound 1593 is synthesized according to Scheme 42. The aqueous solubility of compound 1593 and its counterpart structure without carboxylic acid substitutent, compound 1594, is shown in Table 18. Without the carboxylic acid substitutent, compound 1594 merely has a solubility of about 0.1 mg/mL in PBS solution.

[5] = read-out: solubility in PBS solution

Row | Structure (SMILES) | IC50 [1] | efficacy in Rat Renal Ischemia-Reperfusion model [2] | Rel. Uptake, 293 T [3] | solubility ([4]; PBS, read-out: Solubility) | solubility [4, 5]
1 | COc1ccc(CC[C@H]2OC(=O)[C@@H]3CCCCN3C(=O)C(=O)C(C)(C)COC(=O)/C=C/CCN(C)C(=O)[C@H](CC(C)C)N(C)C(=O)[C@H]3CCCN3C(=O)[C@H](Cc3ccc(OCC(=O)O)cc3)NC(=O)[C@H](c3ccccc3)NC(=O)CCC(=O)Nc3cccc2c3)cc1OC [Compound 1593] | < 0.3 µM | efficacious | High (“High” indicates a response less than 0.3 times the activity relative to DMSO) | 3.5 mg/mL (≈ 2700 µM) | ~3.5 mg/mL (≈ 2700 µM)
2 | COc1ccc(CC[C@H]2OC(=O)[C@@H]3CCCCN3C(=O)C(=O)C(C)(C)COC(=O)/C=C/CCN(C)C(=O)[C@H](CC(C)C)N(C)C(=O)[C@H]3CCCN3C(=O)[C@H](Cc3ccccc3)NC(=O)[C@H](c3ccccc3)NC(=O)CCC(=O)Nc3cccc2c3)cc1OC [Compound 1594] |  | efficacious | Low (“Low” indicates a response greater than 0.6 times the activity relative to DMSO) | > 0.1 mg/mL | ~0.1 mg/mL (≈ 81.7 µM)
